How the values were obtained:
[1] = target: T1, Flt-3 (baculovirus expressed human Flt-3 kinase domain R571-S993) (Homo sapiens, UniProt P36888); test: biochemical; conditions: Table 4, inhibition as IC50 class; read-out: flt3 IC50;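 note: Luciferase-coupled chemiluminescent kinase assay, activity read as percent ATP left after a 3 h reaction at room temperature, ATP near KM, 10-point dose-response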
T1 construct: human Flt-3 kinase domain R571-S993; host or cells: baculovirus expression
T1 sequence (P36888 571-993): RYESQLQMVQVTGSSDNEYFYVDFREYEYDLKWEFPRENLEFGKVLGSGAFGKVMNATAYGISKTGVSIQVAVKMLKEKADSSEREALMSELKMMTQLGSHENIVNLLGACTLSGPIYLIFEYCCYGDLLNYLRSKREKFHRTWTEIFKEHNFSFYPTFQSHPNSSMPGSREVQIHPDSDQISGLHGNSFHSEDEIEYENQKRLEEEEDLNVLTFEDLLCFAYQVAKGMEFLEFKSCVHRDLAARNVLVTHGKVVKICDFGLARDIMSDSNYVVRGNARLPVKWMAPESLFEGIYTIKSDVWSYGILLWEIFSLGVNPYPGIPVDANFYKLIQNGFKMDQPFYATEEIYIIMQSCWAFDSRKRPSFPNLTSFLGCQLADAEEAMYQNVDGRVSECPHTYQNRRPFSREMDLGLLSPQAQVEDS

[2] = target: T2, KDR (baculovirus expressed human KDR kinase domain D807-V1356) (Homo sapiens, UniProt P35968); test: biochemical; conditions: Table 4, inhibition as IC50 class;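 note: Luciferase-coupled chemiluminescent kinase assay, activity read as percent ATP left after 4 h reaction at ambient temperature, ATP near KM, 10-point dose-response in 384-well plates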
T2 construct: human KDR kinase domain D807-V1356; host or cells: baculovirus expression
T2 sequence (P35968 807-1356): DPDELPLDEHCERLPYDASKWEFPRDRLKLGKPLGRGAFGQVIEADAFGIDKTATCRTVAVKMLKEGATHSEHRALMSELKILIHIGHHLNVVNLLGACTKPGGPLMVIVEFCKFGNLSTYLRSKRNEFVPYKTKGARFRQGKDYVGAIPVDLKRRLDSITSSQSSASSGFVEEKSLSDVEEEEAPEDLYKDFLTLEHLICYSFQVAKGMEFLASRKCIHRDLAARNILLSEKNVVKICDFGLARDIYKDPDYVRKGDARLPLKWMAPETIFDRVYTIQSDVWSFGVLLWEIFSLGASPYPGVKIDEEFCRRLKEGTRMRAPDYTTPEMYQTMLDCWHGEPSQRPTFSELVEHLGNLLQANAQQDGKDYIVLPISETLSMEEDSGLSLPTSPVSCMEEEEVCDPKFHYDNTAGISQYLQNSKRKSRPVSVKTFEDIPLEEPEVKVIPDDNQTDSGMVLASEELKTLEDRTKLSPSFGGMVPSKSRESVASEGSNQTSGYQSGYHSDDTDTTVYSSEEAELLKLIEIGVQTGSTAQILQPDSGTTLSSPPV

[3] = target: T3, Flt-4 (baculovirus expressed human Flt-4 kinase domain D725-R1298) (Homo sapiens, UniProt P35916); test: flt-4 Alphascreen Tyrosine Kinase assay; assay type: biochemical; conditions: Table 4, inhibition as IC50 class; read-out: flt4 IC50;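 note: AlphaScreen chemiluminescence read-out of biotinylated poly(Glu,Tyr) 4:1 phosphorylation via streptavidin donor and PY100 anti-phosphotyrosine acceptor beads, ATP near KM, 1 hr kinase reaction, 10-point dose-response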
T3 construct: human Flt-4 kinase domain D725-R1298; host or cells: baculovirus expression
T3 sequence (P35916 725-1298 isoform P35916-1): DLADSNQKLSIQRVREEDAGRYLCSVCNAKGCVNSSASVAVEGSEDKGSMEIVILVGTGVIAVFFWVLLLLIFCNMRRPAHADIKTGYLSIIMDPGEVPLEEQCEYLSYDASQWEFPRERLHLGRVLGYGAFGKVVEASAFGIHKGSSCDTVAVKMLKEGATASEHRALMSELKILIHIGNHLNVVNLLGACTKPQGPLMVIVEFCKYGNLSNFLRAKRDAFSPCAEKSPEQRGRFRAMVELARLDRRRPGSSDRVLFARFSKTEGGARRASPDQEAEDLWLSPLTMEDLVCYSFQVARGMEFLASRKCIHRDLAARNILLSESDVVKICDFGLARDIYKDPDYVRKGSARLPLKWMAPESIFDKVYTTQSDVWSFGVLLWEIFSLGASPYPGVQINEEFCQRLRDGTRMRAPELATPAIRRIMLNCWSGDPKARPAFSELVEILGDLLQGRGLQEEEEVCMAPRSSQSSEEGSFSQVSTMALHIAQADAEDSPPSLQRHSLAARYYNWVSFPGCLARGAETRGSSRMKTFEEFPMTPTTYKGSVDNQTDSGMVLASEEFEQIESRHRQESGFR

c-Kit kinase = c-Kit kinase (Homo sapiens, UniProt P10721); test: c-Kit AlphaScreen kinase assay; assay type: biochemical; conditions: Table 4, inhibition as IC50 class;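 note: c-Kit kinase phosphorylating biotinylated poly(Glu,Tyr), ATP near its KM, 1 h reaction at ambient temperature, AlphaScreen chemiluminescence with streptavidin donor and anti-phosphotyrosine acceptor beads, 10-point inhibitor titration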
Chain of c-Kit kinase (P10721 26-976): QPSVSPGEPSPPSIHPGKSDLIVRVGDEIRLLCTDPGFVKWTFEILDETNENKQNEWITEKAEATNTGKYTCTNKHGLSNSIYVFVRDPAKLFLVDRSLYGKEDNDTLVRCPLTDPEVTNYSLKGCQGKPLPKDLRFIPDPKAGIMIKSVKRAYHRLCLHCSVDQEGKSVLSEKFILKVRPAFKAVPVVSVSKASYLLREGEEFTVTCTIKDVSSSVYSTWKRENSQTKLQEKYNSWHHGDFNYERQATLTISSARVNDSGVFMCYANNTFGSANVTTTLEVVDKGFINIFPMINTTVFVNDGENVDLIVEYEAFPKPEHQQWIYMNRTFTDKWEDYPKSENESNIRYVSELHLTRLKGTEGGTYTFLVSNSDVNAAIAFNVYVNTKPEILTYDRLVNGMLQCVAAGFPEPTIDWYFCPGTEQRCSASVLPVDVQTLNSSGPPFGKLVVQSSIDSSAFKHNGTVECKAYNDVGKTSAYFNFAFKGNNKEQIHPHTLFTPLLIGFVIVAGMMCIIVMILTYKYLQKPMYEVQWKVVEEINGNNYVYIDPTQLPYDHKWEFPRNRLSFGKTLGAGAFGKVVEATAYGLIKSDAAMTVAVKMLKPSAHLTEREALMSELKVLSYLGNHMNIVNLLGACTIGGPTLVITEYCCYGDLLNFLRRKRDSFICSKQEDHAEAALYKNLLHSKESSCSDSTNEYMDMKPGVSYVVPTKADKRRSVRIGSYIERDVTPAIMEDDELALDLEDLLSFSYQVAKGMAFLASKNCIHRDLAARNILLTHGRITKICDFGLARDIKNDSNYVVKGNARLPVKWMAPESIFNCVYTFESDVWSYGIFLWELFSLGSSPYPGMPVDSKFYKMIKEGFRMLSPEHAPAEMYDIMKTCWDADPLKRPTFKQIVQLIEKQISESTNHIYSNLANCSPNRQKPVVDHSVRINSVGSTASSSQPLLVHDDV

[4] = target: T4, c-Met (baculovirus expressed human c-Met kinase domain P948-S1343) (Homo sapiens, UniProt P08581); test: c-Met Luciferase-Coupled Chemiluminescent Kinase assay (LCCA); assay type: biochemical; conditions: Table 4, inhibition as IC50 class;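 note: kinase activity read as percent ATP left after reaction, by luciferase-luciferin chemiluminescence, with 1 µM ATP and 1 µM poly-EY substrate, 2 h at ambient temperature, 10-point dose-response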
T4 construct: human c-Met kinase domain P948-S1343; host or cells: baculovirus expression
T4 sequence (P08581 1011-1343 limits assumed): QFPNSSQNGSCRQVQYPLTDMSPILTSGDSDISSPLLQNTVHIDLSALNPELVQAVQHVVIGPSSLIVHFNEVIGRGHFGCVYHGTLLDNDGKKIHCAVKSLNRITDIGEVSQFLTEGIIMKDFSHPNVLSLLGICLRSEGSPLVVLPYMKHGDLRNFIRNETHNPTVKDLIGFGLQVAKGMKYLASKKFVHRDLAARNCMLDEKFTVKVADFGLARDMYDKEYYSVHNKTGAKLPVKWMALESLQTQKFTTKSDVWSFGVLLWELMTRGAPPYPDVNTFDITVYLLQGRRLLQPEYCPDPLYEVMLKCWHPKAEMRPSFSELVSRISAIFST

SMILES	IC50 [1] [nM]	IC50 [2] [nM]	IC50 [3] [nM]	IC50 (c-Kit kinase) [nM]	IC50 [4] [nM]
COc1ccc(CCNC(=O)C(=O)Nc2ccc(Oc3ccnc4cc(OCC5CCNCC5)c(OC)cc34)c(F)c2)cc1 [Example 228, N-[3-fluoro-4-({6-(methyloxy)-7-[(piperidin-4-ylmethyl)oxy]quinolin-4-yl}oxy)phenyl]-N′-{2-[4-(methyloxy)phenyl]ethyl}ethanediamide]	50 to 500	50 to 500	50 to 500	50 to 500	< 50
COc1cc2c(Oc3ccc(NC(=O)C(=O)NCc4cc(F)cc(C(F)(F)F)c4)cc3F)ccnc2cc1OCC1CCNCC1 [Example 232, N-[3-fluoro-4-({6-(methyloxy)-7-[(piperidin-4-ylmethyl)oxy]quinolin-4-yl}oxy)phenyl]-N′-{[3-fluoro-5-(trifluoromethyl)phenyl]methyl}ethanediamide]	< 50	< 50	50 to 500	50 to 500	< 50
COc1cc2c(Oc3ccc(NC(=O)C(=O)NCc4cc(F)cc(F)c4)cc3F)ccnc2cc1OCC1CCNCC1 [Example 233, N-[(3,5-difluorophenyl)methyl]-N′-[3-fluoro-4-({6-(methyloxy)-7-[(piperidin-4-ylmethyl)oxy]quinolin-4-yl}oxy)phenyl]ethanediamide]	50 to 500	< 50	< 50	< 50	< 50
COc1cc2c(Oc3ccc(NC(=O)C(=O)NCc4cccc(C(F)(F)F)c4)cc3F)ccnc2cc1OCC1CCNCC1 [Example 239, N-[3-fluoro-4-({6-(methyloxy)-7-[(piperidin-4-ylmethyl)oxy]quinolin-4-yl}oxy)phenyl]-N′-{[3-(trifluoromethyl)phenyl]methyl}ethanediamide]	< 50	< 50	50 to 500	< 50	< 50
COc1cc2c(Oc3ccc(NC(=O)C(=O)NCc4cccc(Cl)c4)cc3F)ccnc2cc1OCC1CCNCC1 [Example 243, N-[(3-chlorophenyl)methyl]-N′-[3-fluoro-4-({6-(methyloxy)-7-[(piperidin-4-ylmethyl)oxy]quinolin-4-yl}oxy)phenyl]ethanediamide]	50 to 500	< 50	50 to 500	< 50	< 50
COc1cc2c(Oc3ccc(NC(=O)C(=O)NCc4ccccc4OC(F)(F)F)cc3F)ccnc2cc1OCC1CCNCC1 [Example 244, N-[3-fluoro-4-({6-(methyloxy)-7-[(piperidin-4-ylmethyl)oxy]quinolin-4-yl}oxy)phenyl]-N′-({2-[(trifluoromethyl)oxy]phenyl}methyl)ethanediamide]	< 50	< 50	< 50	< 50	< 50
COc1cc2c(Oc3ccc(NC(=O)C(=O)NCc4ccccc4Cl)cc3F)ccnc2cc1OCC1CCNCC1 [Example 245, N-[(2-chlorophenyl)methyl]-N′-[3-fluoro-4-({6-(methyloxy)-7-[(piperidin-4-ylmethyl)oxy]quinolin-4-yl}oxy)phenyl]ethanediamide]	< 50	< 50	< 50	< 50	< 50
COc1cc2c(Oc3ccc(NC(=O)C(=O)NCCc4ccc(F)cc4)cc3F)ccnc2cc1OCC1CCN(C)CC1 [Example 258, N-{3-fluoro-4-[(6-(methyloxy)-7-{[(1-methylpiperidin-4-yl)methyl]oxy}quinolin-4-yl)oxy]phenyl}-N′-[2-(4-fluorophenyl)ethyl]ethanediamide]	< 50	< 50	< 50	< 50	< 50

Other lines, results leading:

IC50 [1] [nM]	IC50 [2] [nM]	IC50 [3] [nM]	IC50 (c-Kit kinase) [nM]	IC50 [4] [nM]	SMILES
< 50	< 50	< 50	< 50	< 50	COc1cc2c(Oc3ccc(NC(=O)C(=O)NCC(C)c4ccccc4)cc3F)ccnc2cc1OCC1CCNCC1 (centres unmarked) [Example 229, N-[3-fluoro-4-({6-(methyloxy)-7-[(piperidin-4-ylmethyl)oxy]quinolin-4-yl}oxy)phenyl]-N′-(2-phenylpropyl)ethanediamide]
50 to 500	< 50	50 to 500	50 to 500	< 50	COc1cc2c(Oc3ccc(NC(=O)C(=O)NCCc4ccc(Br)cc4)cc3F)ccnc2cc1OCC1CCNCC1 [Example 230, N-[2-(4-bromophenyl)ethyl]-N′-[3-fluoro-4-({6-(methyloxy)-7-[(piperidin-4-ylmethyl)oxy]quinolin-4-yl}oxy)phenyl]ethanediamide]
50 to 500	50 to 500	50 to 500	50 to 500	< 50	CCN1CCC(COc2cc3nccc(Oc4ccc(NC(=O)C(=O)N5CCOC(c6ccccc6)C5)cc4F)c3cc2OC)CC1 (centres unmarked) [Example 231, N-(4-{[7-{[(1-ethylpiperidin-4-yl)methyl]oxy}-6-(methyloxy)quinolin-4-yl]oxy}-3-fluorophenyl)-2-oxo-2-(2-phenylmorpholin-4-yl)acetamide]
< 50	< 50	50 to 500	50 to 500	< 50	COc1cc2c(Oc3ccc(NC(=O)C(=O)NCc4cc(C(F)(F)F)ccc4Cl)cc3F)ccnc2cc1OCC1CCNCC1 [Example 234, N-{[2-chloro-5-(trifluoromethyl)phenyl]methyl}-N′-[3-fluoro-4-({6-(methyloxy)-7-[(piperidin-4-ylmethyl)oxy]quinolin-4-yl}oxy)phenyl]ethanediamide]
< 50	< 50	< 50	< 50	< 50	COc1cc2c(Oc3ccc(NC(=O)C(=O)NCc4cccc(OC(F)(F)F)c4)cc3F)ccnc2cc1OCC1CCNCC1 [Example 240, N-[3-fluoro-4-({6-(methyloxy)-7-[(piperidin-4-ylmethyl)oxy]quinolin-4-yl}oxy)phenyl]-N′-({3-[(trifluoromethyl)oxy]phenyl}methyl)ethanediamide]
< 50	< 50	< 50	< 50	< 50	COc1ccccc1CNC(=O)C(=O)Nc1ccc(Oc2ccnc3cc(OCC4CCNCC4)c(OC)cc23)c(F)c1 [Example 241, N-[3-fluoro-4-({6-(methyloxy)-7-[(piperidin-4-ylmethyl)oxy]quinolin-4-yl}oxy)phenyl]-N′-{[2-(methyloxy)phenyl]methyl}ethanediamide]
50 to 500	50 to 500	50 to 500	50 to 500	< 50	COc1cc2c(Oc3ccc(NC(=O)C(=O)NCc4ccc(OC(F)(F)F)cc4)cc3F)ccnc2cc1OCC1CCNCC1 [Example 246, N-[3-fluoro-4-({6-(methyloxy)-7-[(piperidin-4-ylmethyl)oxy]quinolin-4-yl}oxy)phenyl]-N′-({4-[(trifluoromethyl)oxy]phenyl}methyl)ethanediamide]
< 50	< 50	< 50	< 50	< 50	COc1cc2c(Oc3ccc(NC(=O)C(=O)NCCc4ccccc4)cc3F)ccnc2cc1OCC1CN(C)C1 [Example 250, N-(3-fluoro-4-{[7-{[(1-methylazetidin-3-yl)methyl]oxy}-6-(methyloxy)quinolin-4-yl]oxy}phenyl)-N′-(2-phenylethyl)ethanediamide]
50 to 500	50 to 500	50 to 500	50 to 500	< 50	CC[C@@H](NC(=O)C(=O)Nc1ccc(Oc2ccnc3cc(OCC4CCNCC4)c(OC)cc23)c(F)c1)c1ccccc1 [Example 254, N-[3-fluoro-4-({6-(methyloxy)-7-[(piperidin-4-ylmethyl)oxy]quinolin-4-yl}oxy)phenyl]-N′-[(1R)-1-phenylpropyl]ethanediamide]
50 to 500	< 50	< 50	< 50	< 50	COc1cc2c(Oc3ccc(NC(=O)C(=O)NCc4ccc(F)c(F)c4)cc3F)ccnc2cc1OCC1CCNCC1 [Example 256, N-[(3,4-difluorophenyl)methyl]-N′-[3-fluoro-4-({6-(methyloxy)-7-[(piperidin-4-ylmethyl)oxy]quinolin-4-yl}oxy)phenyl]ethanediamide]
50 to 500	< 50	< 50	< 50	< 50	COc1cc2c(Oc3ccc(NC(=O)C(=O)NCc4c(F)cccc4F)cc3F)ccnc2cc1OCC1CCNCC1 [Example 257, N-[(2,6-difluorophenyl)methyl]-N′-[3-fluoro-4-({6-(methyloxy)-7-[(piperidin-4-ylmethyl)oxy]quinolin-4-yl}oxy)phenyl]ethanediamide]

— patent US8476298B2 (Exelixis, Inc., priority 2003, dated 2013)
